Reference: ChEMBL document CHEMBL1201862, “PubChem BioAssay data set” (2004)
Activity calls are given as the source filed them.

Tests used:
[1] = molecular target: T1, Neuropeptide Y receptor type 1 (Homo sapiens, UniProt P25929); assay: Fluorescence-based counterscreen for agonists of NPY-Y2: cell-based high-throughput dose response assay for agonists of NPY-Y1.; type: functional
T1 sequence (P25929 whole entry): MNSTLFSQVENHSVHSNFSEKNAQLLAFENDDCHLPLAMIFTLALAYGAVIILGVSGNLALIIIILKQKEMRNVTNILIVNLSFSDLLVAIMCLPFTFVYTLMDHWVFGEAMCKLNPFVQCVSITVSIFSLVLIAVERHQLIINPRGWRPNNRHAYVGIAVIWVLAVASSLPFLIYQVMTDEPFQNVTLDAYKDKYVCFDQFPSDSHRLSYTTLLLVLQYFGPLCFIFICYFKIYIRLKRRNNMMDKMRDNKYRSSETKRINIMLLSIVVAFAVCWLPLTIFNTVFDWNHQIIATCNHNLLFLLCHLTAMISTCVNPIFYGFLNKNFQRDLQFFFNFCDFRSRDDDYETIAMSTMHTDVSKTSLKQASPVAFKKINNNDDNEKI

[2] = molecular target: T2, Neuropeptide Y receptor type 2 (Homo sapiens, UniProt P49146); assay: Fluorescence-based cell-based high-throughput dose response assay for agonists of NPY-Y2. [Related pubchem assays: 1703 (Screening assay (CNGC inhibitors).), 1359 (Screening assay (NPY-Y2 potentiators or agonists).), 1304 (Screening assay (NPY-Y1 potentiators or agonists).), 1710 (Screening assay (NPY-Y2 agonists).), 1791 (Summary AID.)]; type: functional
T2 sequence (P49146 whole entry): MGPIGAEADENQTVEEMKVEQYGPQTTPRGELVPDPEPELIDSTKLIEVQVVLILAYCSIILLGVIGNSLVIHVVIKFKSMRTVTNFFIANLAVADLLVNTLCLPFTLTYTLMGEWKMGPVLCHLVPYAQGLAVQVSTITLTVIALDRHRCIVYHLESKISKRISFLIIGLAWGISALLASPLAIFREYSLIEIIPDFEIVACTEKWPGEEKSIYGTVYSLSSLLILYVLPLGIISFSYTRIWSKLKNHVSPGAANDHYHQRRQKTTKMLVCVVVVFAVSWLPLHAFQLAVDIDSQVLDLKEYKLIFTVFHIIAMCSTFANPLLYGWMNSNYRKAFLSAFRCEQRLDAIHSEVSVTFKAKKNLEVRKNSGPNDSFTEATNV

HEK293 [3] = assay: Fluorescence-based counterscreen for potentiators or agonists of NPY-Y2: cell-based high-throughput dose response assay to identify inhibitors of cyclic nucleotide gated ion channel (CNGC) activity. In this assay, the parental HEK293 cell line transfected with a cyclic-nucleotide gated ion channel (CNGC)-based cAMP sensor is used to measure inhibition of isoproterenol-induced CNGC activity by test compound.; type: functional; settings: Homo sapiens
fMet-Leu-Phe receptor = fMet-Leu-Phe receptor (Homo sapiens, UniProt P21462); assay: FPR ligands, dose response (AID 519); type: functional
X-box-binding protein 1 = X-box-binding protein 1 (Homo sapiens, UniProt P17861); type: functional, Cricetulus griseus;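 also: confirmatory dose-response counter-screen serving a CHOP assay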
T-cell = assay: inhibitors of CD8+ T cell–vesicle binding, dose response, mouse 2C CD8+ T cells, flow cytometry (AID 485284); type: functional
[4] = molecular target: Intestinal-type alkaline phosphatase (Homo sapiens, UniProt P09923); assay: Dose Response confirmation of uHTS hits from a small molecule inhibitors of human intestinal alkaline phosphatase via a luminescent assay. [Related pubchem assays (depositor defined):AID2544, AID2574]; type: functional
[5] = cytotoxicity in HEK-293T cells, dose response, cytotoxicity control for BCR NF-kB inhibitor project, luminescence, B-cell screen hits (AID 489021); type: functional, cell-based;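 also: HEK-293T cells carrying an NF-kB luciferase reporter; cells exposed to compound for about 14 hours before viability readout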
BJ [6] = assay: cytotoxicity toward BJ-TERT-LT-ST fibroblasts, dose response, cell-based, RAS-independent, luminescence (AID 1935); type: functional; settings: Homo sapiens;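 also: BJ fibroblasts immortalized with TERT plus LT and ST oncogenes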
BJ [7] = assay: cytotoxicity toward Ras-transformed BJeLR fibroblasts, dose response, cell-based, alamar blue fluorescence, cherrypicked samples (AID 2631); type: functional; settings: Homo sapiens;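 also: confirmatory dose-response assay in RAS-dependent BJ fibroblasts engineered with TERT, LT and ST, with cytotoxicity read by fluorescence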
[8] = inhibitors of SNCA 5'UTR-driven reporter translation, confirmation, H4 neuroglioma cells, luminescence (AID 1988); type: functional, cell-based
BJ [9] = assay: cytotoxicity toward BJ-TERT fibroblasts, dose response, cell-based, RAS-independent, luminescence (AID 1933); type: functional; settings: Homo sapiens
BJ [10] = assay: cells; type: functional, cell-based; settings: Homo sapiens
[11] = inhibitors of SNCA 5'UTR-driven translation, confirmation, luminescence, H4 neuroglioblastoma cells, dose confirmation (AID 2454); type: functional, cell-based;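 also: H4 neuroglioblastoma cells carrying an alpha-synuclein 5'UTR luciferase reporter; potency for inhibition of the luciferase signal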
[12] = cytotoxicity toward DRD oncogenic fibroblasts, dose response, cell-based, non-viral oncogenic, luminescence (AID 1934); type: functional; settings: Homo sapiens
HEK293 [13] = assay: inhibitors of LMP1-driven NF-kB reporter, dose response, cell-based, HEK293, luciferase, cherry-pick (AID 588343); type: functional; settings: Homo sapiens
cells = type: functional, cell-based
[14] = luciferase reporter signal reduction – luminescence, H4-C neuroglioblastoma cells, dose response (AID 2458); type: functional, cell-based;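 also: H4 neuroglioblastoma cells stably carrying a luciferase reporter gene fusion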
[15] = inhibitors of firefly luciferase expression or activity, dose response, H4 neuroglioma cells, luminescence (AID 1990); type: functional, cell-based
[16] = system: Streptococcus sp. 'group A'; assay: growth inhibition of control SK(-) GAS strain, dose response, counter-screen for streptokinase expression inhibitor project, luminescence, kanamycin, BacTiterGlo, confirmation (AID 1900); type: functional, organism-based
Streptococcus = assay: Group A Streptococcus viability loss, dose response, counter-screen for streptokinase expression inhibitor project, luminescence, BacTiterGlo (AID 1915); type: functional, organism-based;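 also: potency for reduction of bacterial viability or growth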
[17] = non-specific cell cytotoxicity, dose response, cytotoxicity control for PAX8 inhibitor project, plate reader, dry powder samples (AID 743021); type: functional, cell-based
[18] = Luminescence Cell-Based Dose Response HTS to Identify Inhibitors of 5'UTR Stem-Loop Driven Prion Protein mRNA Translation in H4 Neuroglioblastoma Cells. [Related pubchem assays: 1827 (Project Summary), 1813 (Primary HTS)]; type: functional
Paired box protein Pax-8 = Paired box protein Pax-8 (Homo sapiens, UniProt Q06710); assay: inhibitors of PAX8-driven TPO luciferase reporter, dose response, RMG-I cells, cherry-pick (AID 687027); type: functional, cell-based;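 also: luciferase reporter driven by Pax8 target thyroperoxidase promoter measured by SteadyGlo luminescence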
INS1 = assay: beta cell apoptosis inhibitors, cytokine rescue, dose response, luminescence, retest (AID 449756); type: functional, cell-based; settings: Rattus norvegicus;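 also: cell death triggered by IL-1 beta plus TNF-alpha plus IFN-gamma mixture; protective hits raise ATP signal compared with cytokine alone wells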
[19] = molecular target: Dual specificity tyrosine-phosphorylation-regulated kinase 1A (Rattus norvegicus, UniProt Q63470); type: biochemical, Homo sapiens
[20] = NIH-3T3 fibroblast cytotoxicity, dose response, cytotoxicity control, cell-based, fluorescence, Alamar Blue, secondary assay (AID 2327); type: functional;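 also: NIH-3T3 mouse fibroblasts cultured with fluconazole at 8 µg/mL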
[21] = molecular target: Heat shock protein HSP 90-alpha (Homo sapiens, UniProt P07900); type: functional, organism-based
[22] = C. albicans growth with fluconazole, confirmation, fluorescence, retest (AID 2467); type: functional, cell-based
Streptokinase A = molecular target: T3, Streptokinase A (Streptococcus pyogenes serotype M1, UniProt P10520); assay: S. pyogenes streptokinase expression inhibitors, potency, dose response, plasminogen activation absorbance, OD405 (AID 1914); type: functional, Streptococcus pyogenes M1 GAS;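 also: secreted streptokinase activity via plasminogen activation per viability signal from cell pellet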
T3 sequence (P10520 whole entry): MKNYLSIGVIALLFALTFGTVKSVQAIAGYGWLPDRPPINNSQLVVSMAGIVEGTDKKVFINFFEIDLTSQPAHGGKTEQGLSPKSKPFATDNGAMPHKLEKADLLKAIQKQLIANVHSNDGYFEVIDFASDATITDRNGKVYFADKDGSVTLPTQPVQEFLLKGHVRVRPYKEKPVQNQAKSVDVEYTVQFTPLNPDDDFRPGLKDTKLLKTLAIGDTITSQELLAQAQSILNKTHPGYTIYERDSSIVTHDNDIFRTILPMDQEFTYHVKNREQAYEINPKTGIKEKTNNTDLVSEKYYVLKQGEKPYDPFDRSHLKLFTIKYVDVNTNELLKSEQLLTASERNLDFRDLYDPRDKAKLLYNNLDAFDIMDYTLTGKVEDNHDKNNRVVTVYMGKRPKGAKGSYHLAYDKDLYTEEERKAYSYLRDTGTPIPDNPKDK

[23] = cytotoxicity in HEK-293T cells, dose response, cytotoxicity control for TCR NF-kB inhibitor project, luminescence, T-cell screen hits (AID 489026); type: functional, cell-based;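 also: cells exposed to compound about 14 hours before the viability readout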
[24] = HIV-1 Env-mediated cell fusion inhibitors, dose response, CCR5-tropic Env (AID 2279); type: functional
Vero = Vero cell cytotoxicity, cytotoxicity control for flavivirus capping enzyme inhibitors (AID 588742); type: functional; settings: Chlorocebus sabaeus
[25] = ARNT/TACC3 interaction disruptors, potency, confirmation, biochemical, AlphaScreen, cherry-picked samples (AID 651703); type: functional, Homo sapiens;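 also: His-tagged ARNT PAS-B domain paired with GST-TACC3 E629A dimer coactivator fragment; potency of inhibitors that break up the complex and lower AlphaScreen signal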
[26] = molecular target: T4, Long-chain-fatty-acid--AMP ligase FadD28 (Mycobacterium tuberculosis, UniProt P9WQ59); assay: Fluorescence polarization aasay to screen for inhibitors that compete for the binding of FadD28 to a bisubstrate Measured in Biochemical System Using Plate Reader - 2147-01_Inhibitor_Dose_CherryPick_Activity.; type: functional, Mycobacterium tuberculosis H37Rv
T4 sequence (P9WQ59 whole entry): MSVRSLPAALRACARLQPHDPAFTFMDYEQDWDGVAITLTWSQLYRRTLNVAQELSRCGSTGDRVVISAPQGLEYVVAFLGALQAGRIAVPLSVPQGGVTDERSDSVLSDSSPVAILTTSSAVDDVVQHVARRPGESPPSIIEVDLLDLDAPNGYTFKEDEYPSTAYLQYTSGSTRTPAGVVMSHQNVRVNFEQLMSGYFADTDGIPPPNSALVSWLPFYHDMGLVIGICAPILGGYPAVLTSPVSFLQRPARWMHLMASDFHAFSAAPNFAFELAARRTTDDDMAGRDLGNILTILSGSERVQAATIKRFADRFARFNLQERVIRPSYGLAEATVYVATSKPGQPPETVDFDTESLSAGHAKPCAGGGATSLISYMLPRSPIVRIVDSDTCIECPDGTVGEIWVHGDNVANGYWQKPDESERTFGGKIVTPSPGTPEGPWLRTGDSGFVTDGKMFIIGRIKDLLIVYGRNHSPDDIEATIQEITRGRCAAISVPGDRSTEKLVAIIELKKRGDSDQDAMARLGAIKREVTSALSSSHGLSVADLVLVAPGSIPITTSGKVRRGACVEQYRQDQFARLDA

Genome polyprotein = Genome polyprotein (dengue virus type 2, UniProt P29990); assay: Dengue-2 NS5 methyltransferase inhibitors, primary screen, biochemical, confirmation dose response (AID 588689); type: functional
Genome polyprotein, sequence (P29990 2492-3391 limits assumed): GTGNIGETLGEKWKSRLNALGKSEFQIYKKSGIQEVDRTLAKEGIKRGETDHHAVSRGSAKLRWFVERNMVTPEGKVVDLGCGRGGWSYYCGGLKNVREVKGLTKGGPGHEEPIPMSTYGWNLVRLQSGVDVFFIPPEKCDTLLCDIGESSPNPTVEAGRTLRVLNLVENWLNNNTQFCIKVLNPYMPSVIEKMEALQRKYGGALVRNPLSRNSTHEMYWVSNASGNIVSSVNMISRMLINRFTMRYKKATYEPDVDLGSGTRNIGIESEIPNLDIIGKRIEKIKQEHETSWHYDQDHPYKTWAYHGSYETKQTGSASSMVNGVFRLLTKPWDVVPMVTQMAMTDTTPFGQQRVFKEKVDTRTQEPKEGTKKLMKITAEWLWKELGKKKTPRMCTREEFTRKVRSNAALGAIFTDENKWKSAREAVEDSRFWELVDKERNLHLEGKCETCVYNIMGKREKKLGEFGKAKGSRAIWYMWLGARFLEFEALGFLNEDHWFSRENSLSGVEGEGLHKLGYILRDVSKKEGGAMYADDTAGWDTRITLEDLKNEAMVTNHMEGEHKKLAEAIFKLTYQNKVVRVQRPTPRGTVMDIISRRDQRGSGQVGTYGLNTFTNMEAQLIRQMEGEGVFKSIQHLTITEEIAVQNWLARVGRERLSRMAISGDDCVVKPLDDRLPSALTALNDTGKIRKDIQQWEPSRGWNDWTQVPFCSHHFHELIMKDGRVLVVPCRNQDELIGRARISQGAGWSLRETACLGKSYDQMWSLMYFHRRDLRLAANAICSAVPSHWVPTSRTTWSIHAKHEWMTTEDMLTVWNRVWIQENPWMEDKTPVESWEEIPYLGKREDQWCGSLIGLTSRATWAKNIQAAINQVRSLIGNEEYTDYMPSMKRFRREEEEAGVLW

X-box-binding protein 1, sequence (P17861 whole entry): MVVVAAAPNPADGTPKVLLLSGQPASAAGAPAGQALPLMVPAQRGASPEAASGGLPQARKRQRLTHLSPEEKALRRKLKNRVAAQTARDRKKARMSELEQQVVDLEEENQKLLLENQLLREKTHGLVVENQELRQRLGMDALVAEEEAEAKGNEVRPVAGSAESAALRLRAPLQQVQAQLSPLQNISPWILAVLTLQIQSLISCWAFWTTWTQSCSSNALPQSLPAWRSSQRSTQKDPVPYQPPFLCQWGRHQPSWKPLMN
Paired box protein Pax-8, sequence (Q06710 whole entry): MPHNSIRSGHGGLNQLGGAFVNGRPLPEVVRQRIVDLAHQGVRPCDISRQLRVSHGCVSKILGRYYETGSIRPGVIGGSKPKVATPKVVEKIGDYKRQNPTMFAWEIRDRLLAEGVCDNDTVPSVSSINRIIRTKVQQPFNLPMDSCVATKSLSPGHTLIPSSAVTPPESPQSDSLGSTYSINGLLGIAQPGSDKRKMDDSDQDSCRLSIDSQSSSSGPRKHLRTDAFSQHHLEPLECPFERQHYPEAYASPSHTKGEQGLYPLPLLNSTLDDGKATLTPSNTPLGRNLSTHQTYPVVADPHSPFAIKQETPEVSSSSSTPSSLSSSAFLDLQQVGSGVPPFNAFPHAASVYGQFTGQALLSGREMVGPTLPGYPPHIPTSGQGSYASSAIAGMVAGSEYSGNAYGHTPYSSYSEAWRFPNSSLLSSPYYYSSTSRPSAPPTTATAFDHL
fMet-Leu-Phe receptor, sequence (P21462 whole entry): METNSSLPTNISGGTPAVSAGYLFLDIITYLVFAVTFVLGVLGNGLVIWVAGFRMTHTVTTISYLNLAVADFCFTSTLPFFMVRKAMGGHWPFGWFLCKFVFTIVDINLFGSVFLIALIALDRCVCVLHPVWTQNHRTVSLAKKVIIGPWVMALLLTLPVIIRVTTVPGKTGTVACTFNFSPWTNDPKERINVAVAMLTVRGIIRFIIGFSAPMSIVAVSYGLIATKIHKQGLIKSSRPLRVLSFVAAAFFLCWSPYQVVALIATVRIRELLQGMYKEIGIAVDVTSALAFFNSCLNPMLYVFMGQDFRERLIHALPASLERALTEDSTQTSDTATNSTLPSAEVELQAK
Intestinal-type alkaline phosphatase, sequence (P09923 whole entry): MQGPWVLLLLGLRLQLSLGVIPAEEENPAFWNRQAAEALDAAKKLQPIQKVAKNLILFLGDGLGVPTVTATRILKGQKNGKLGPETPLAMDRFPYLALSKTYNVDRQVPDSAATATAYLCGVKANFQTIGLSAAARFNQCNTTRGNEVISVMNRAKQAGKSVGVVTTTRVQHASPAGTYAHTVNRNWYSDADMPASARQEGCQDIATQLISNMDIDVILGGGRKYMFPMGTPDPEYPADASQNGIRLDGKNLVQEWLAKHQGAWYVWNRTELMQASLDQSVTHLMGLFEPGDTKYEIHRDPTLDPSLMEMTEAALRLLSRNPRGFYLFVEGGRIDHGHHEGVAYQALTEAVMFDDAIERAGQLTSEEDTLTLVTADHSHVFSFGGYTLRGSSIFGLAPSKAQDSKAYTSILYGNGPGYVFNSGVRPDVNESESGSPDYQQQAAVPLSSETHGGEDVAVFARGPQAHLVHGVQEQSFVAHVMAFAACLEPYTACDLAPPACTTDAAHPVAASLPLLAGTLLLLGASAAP

O=C(O)C1CC=CCC1C(=O)N1CCN(c2nc(-c3ccccc3)c3ccccc3n2)CC1 (stereo unspecified)
EC50 [1]: 22 µM (not active) | EC50 [2]: > 35.4 µM (not active) | EC50 (HEK293 [3]): > 3.94 µM (active) | Ki (fMet-Leu-Phe receptor): > 66.7 µM (inactive)

CC1CCCC(NC(=O)COC(=O)/C=C/c2ccc3c(c2)OCO3)C1C (stereo unspecified)
Absolute IC50 (XBP1) (X-box-binding protein 1): 10 µM

COc1ccc(C2=Nc3cc(C)ccc3OC2)cc1
EC50 (T-cell): 8.65 µM (active) | IC50 [4]: > 100 µM (inactive)

CC(=C/c1ccco1)/C=N/NC(=O)CSc1nnc(SCc2ccc(C)cc2)s1
IC50 [5]: > 80 µM (inactive)

CN(Cc1cnc2nc(N)nc(N)c2n1)c1ccc(C(=O)N[C@@H](CCC(=O)O)C(=O)O)cc1
EC50 (BJ [6]): > 150 µM (not active) | EC50 (BJ [7]): > 133 µM (inactive) | EC50 [8]: < 0.1 µM (active) | EC50 (BJ [9]): > 150 µM (not active) | EC50 (BJ [10]): < 0.46 µM (active) | EC50 [11]: 0.011 µM (active) | EC50 [12]: 0.244 µM (active) | AC50 (HEK293 [13]): 0.332 µM (active) | EC50 (cells): 0.078 µM (active) | EC50 [14]: 0.074 µM (active) | EC50 [15]: < 0.1 µM (active) | EC50 [16]: 0.621 µM (active) | EC50 (Streptococcus): 0.65 µM (active)

COc1ccc(OCc2cccc(C(=O)Nc3cc(C)on3)c2)cc1
AC50 [17]: 43.9 µM (active) | EC50 [8]: 9.85 µM (inconclusive) | EC50 [18]: > 60 µM (not active) | AC50 (Paired box protein Pax-8): 4.14 µM (active) | IC50 [5]: > 80 µM (inactive)

O=[N+]([O-])c1cccc2c(N3CCOCC3)ccnc12
EC50 [1]: > 35.4 µM (not active) | EC50 [2]: > 35.4 µM (not active) | EC50 (HEK293 [3]): > 35.4 µM (not active)

C=CC(C)(C)c1c(O)c(CC=C(C)C)c(O)c2c(=O)c3ccc(O)c(O)c3oc12 [GERONTOXANTHONE I]
EC50 (T-cell): 2.86 µM (active) | AC50 (INS1): 3.34 µM (active) | AC50 [19]: 8.27 µM (active) | EC50 [20]: > 160 µM (inconclusive) | AC50 [21]: 8.03 µM (active) | EC50 [16]: 2.29 µM (active) | EC50 [22]: > 38 µM (not active) | EC50 (Streptokinase A): > 150 µM (not active) | EC50 (Streptococcus): 7.75 µM (active)

CCCc1nc2oc(C(=O)c3ccccc3)c(N)c2c2c1COC(C)(C)C2
Absolute IC50 (XBP1) (X-box-binding protein 1): 10 µM

COc1cc(C2C3=C(Nc4ncnn42)c2ccccc2CC3)cc(OC)c1OC (stereo unspecified)
EC50 (BJ [6]): 0.498 µM (inconclusive) | EC50 [8]: < 0.1 µM (active) | EC50 (BJ [9]): 0.572 µM (active) | EC50 [18]: < 0.1 µM (active) | EC50 (BJ [10]): 0.659 µM (active) | EC50 [11]: 0.348 µM (active) | EC50 [12]: 0.532 µM (active) | AC50 (Paired box protein Pax-8): 2.18 µM (active) | EC50 (cells): 0.452 µM (active) | EC50 [14]: 0.21 µM (active) | EC50 [15]: < 0.1 µM (active) | IC50 [23]: > 80 µM (inactive)

CC(C(=O)Nc1ccc(O)c(C(=O)O)c1)N1C(=O)/C(=C/c2cccs2)SC1=S (stereo unspecified)
IC50 [24]: > 50 µM (active) | CC50 (Vero): > 40 µM (active) | AC50 [25]: 132 µM (active) | AC50 [26]: > 100 µM (inactive) | IC50 (Genome polyprotein): 41.1 µM (active)
